≈ marks a conversion by molar mass, not a printed value.
What was measured:
Type in all cases: functional
[1] = test system: Listeria monocytogenes; assay: Antimicrobial activity against Listeria monocytogenes incubated at 37 degC for 24 hrs by broth macrodilution method
[2] = test system: Bacillus cereus; assay: Antimicrobial activity against Bacillus cereus incubated at 37 degC for 24 hrs by broth macrodilution method
[3] = test system: Streptococcus pneumoniae; assay: Antimicrobial activity against Streptococcus pneumoniae incubated at 37 degC for 24 hrs by broth macrodilution method
[4] = test system: Clostridioides difficile; assay: Antimicrobial activity against Clostridium difficile ATCC 9689 incubated at 37 degC for 24 hrs by broth macrodilution method; settings: ATCC 9689, 24 h
[5] = test system: Staphylococcus aureus; assay: Antimicrobial activity against methicillin-resistant Staphylococcus aureus incubated at 37 degC for 24 hrs by broth macrodilution method
[6] = test system: Salmonella sp.; assay: Antimicrobial activity against Salmonella sp. incubated at 37 degC for 24 hrs by broth macrodilution method
[7] = test system: Escherichia coli; assay: Antimicrobial activity against Escherichia coli O157:H7 incubated at 37 degC for 24 hrs by broth macrodilution method; settings: O157:H7, 24 h
[8] = test system: Klebsiella pneumoniae; assay: Antimicrobial activity against Klebsiella pneumoniae ATCC 13883 incubated at 37 degC for 24 hrs by broth macrodilution method; settings: ATCC 13883, 24 h
[9] = test system: Campylobacter jejuni; assay: Antimicrobial activity against Campylobacter jejuni ATCC 33291 incubated at 37 degC for 24 hrs by broth macrodilution method; settings: ATCC 33291, 24 h
[10] = test system: Staphylococcus aureus; assay: Antimicrobial activity against methicillin-sensitive Staphylococcus aureus incubated at 37 degC for 24 hrs by broth macrodilution method
[11] = test system: Pseudomonas; assay: Antimicrobial activity against Pseudomonas incubated at 37 degC for 24 hrs by broth macrodilution method
[12] = test system: Neisseria gonorrhoeae; assay: Antimicrobial activity against Neisseria gonorrhoeae incubated at 37 degC for 24 hrs by broth macrodilution method
[13] = test system: Pseudomonas aeruginosa; assay: Antimicrobial activity against Pseudomonas aeruginosa incubated at 37 degC for 24 hrs by broth macrodilution method
[14] = test system: Klebsiella pneumoniae; assay: Antimicrobial activity against Klebsiella pneumoniae

Structure (SMILES)	MIC [1]	MIC [2]	MIC [3]	MIC [4]	MIC [5]	MIC [6]	MIC [7]	MIC [8]	MIC [9]	MIC [10]	MIC [11]	MIC [12]	MIC [13]	MIC [14]
Oc1c(Br)cc(Br)cc1Oc1ccc(Br)cc1Br	1 µg/mL (≈ 1.99 µM)	5 µg/mL (≈ 9.96 µM)	5 µg/mL (≈ 9.96 µM)	10 µg/mL (≈ 19.9 µM)	1 µg/mL (≈ 1.99 µM)	10 µg/mL (≈ 19.9 µM)	10 µg/mL (≈ 19.9 µM)	5 µg/mL (≈ 9.96 µM)	5 µg/mL (≈ 9.96 µM)					
Oc1cc(Br)cc(Br)c1Oc1ccc(Br)cc1Br	2 µg/mL (≈ 3.99 µM)	0.1 µg/mL (≈ 0.199 µM)		4 µg/mL (≈ 7.97 µM)	0.1 µg/mL (≈ 0.199 µM)	1 µg/mL (≈ 1.99 µM)	8 µg/mL (≈ 15.9 µM)	0.1 µg/mL (≈ 0.199 µM)	5 µg/mL (≈ 9.96 µM)	1 µg/mL (≈ 1.99 µM)	4 µg/mL (≈ 7.97 µM)	2 µg/mL (≈ 3.99 µM)	16 µg/mL (≈ 31.9 µM)	
O=C(O)c1cn(C2CC2)c2cc(N3CCNCC3)c(F)cc2c1=O [CIPROFLOXACIN]								0.125 µg/mL (≈ 0.377 µM)						0.5 µg/mL (≈ 1.51 µM)
CO[C@@]1(NC(=O)Cc2cccs2)C(=O)N2C(C(=O)O)=C(COC(N)=O)CS[C@@H]21 [CEFOXITIN]								0.25 µg/mL (≈ 0.585 µM)						2 µg/mL (≈ 4.68 µM)
Oc1cc(Br)c(Br)c(Br)c1Oc1ccc(Br)cc1Br	0.1 µg/mL (≈ 0.172 µM)			10 µg/mL (≈ 17.2 µM)	0.1 µg/mL (≈ 0.172 µM)	10 µg/mL (≈ 17.2 µM)			5 µg/mL (≈ 8.61 µM)					
C[C@@H](O)[C@H]1C(=O)N2C(C(=O)O)=C(SCCNC=N)C[C@H]12 [IMIPENEM ANHYDROUS]								0.25 µg/mL (≈ 0.835 µM)						0.25 µg/mL (≈ 0.835 µM)

— ChEMBL document CHEMBL3400054, “Polybrominated diphenyl ethers with potent and broad spectrum antimicrobial activity from the marine sponge Dysidea” (2015)
